Experimental data from US20250304644A1, “PEPTIDES TRIPLE AGONISTS OF GIP, GLP-1 AND GLP-2” (BAINAN BIOTECH APS, priority 2021, published 2025).
Where “and” joins values, the source holds several entries; their conditions need not be identical. Equal values may be shown once. Read-outs that look alike come from different tables or passages of the source. *1 amine or outer side, *2 acyl side, *3 side chain or, on linkers, in order; H or OH if unused. Where no end group is shown, it is not given here. Side-chain parts run from the residue outwards. [ ]: non-standard residue; d: D form. The star is where a group is joined. C18 diacid = O=C(O)CCCCCCCCCCCCCCCCC(=O)*; γGlu = O=C(O)[C@H](CCC(=O)[*:2])N[*:1]; AEEA = NCCOCCOCC(=O)O; Aib = CC(C)(N)C(=O)O

Experiments:
Type in all cases: cell-based
human GIPR = biological target: T1, human GIPR (Homo sapiens, UniProt P48546); test: cAMP assay (HitHunter) in transiently transfected COS-7 cells expressing human GIPR; details: for EC50: cAMP, COS-7 cells, human GIPR
T1 construct: host or cells: COS-7
T1 sequence (P48546 22-466): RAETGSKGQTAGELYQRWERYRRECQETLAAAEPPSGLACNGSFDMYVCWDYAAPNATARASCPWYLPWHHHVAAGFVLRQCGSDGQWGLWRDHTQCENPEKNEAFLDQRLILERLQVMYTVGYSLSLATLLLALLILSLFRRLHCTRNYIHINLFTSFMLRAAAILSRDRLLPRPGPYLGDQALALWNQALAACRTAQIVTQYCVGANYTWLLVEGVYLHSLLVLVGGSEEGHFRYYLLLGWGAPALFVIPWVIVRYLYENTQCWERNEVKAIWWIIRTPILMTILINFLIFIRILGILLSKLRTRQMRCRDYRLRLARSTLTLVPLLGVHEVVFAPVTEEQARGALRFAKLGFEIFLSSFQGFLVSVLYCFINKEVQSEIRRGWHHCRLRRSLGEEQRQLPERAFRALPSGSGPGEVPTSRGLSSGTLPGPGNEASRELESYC

human GLP-2R = biological target: T2, human GLP-2R (Homo sapiens, UniProt O95838); test: cAMP assay (HitHunter) in transiently transfected COS-7 cells expressing human GLP-2R; details: for EC50: cAMP, COS-7 cells, human GLP-2R
T2 construct: host or cells: COS-7
T2 sequence (O95838 1-553): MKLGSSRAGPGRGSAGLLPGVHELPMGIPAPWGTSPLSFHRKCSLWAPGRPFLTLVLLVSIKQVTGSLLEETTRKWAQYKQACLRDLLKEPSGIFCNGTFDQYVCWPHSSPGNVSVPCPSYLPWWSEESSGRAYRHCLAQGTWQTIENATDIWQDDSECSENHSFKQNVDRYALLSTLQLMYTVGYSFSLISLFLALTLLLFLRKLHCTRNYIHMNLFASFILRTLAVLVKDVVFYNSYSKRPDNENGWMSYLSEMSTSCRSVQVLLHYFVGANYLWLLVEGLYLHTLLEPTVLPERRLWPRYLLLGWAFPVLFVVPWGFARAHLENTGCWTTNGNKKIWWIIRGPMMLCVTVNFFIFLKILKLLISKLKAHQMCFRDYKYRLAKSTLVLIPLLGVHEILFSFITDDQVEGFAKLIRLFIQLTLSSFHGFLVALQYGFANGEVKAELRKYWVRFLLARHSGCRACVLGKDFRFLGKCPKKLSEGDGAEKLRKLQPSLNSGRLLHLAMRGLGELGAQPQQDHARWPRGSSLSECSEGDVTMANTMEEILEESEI

human GLP-1R = biological target: T3, human GLP-1R (Homo sapiens, UniProt P43220); test: cAMP assay (HitHunter) in transiently transfected COS-7 cells expressing human GLP-1R; details: for EC50: cAMP, COS-7 cells, human GLP-1R
T3 construct: host or cells: COS-7

[1] = biological target: human glucagon receptor (GCGR) (Homo sapiens, UniProt P47871); test: Gs activation measured as cAMP accumulation on human glucagon receptor (FIG. 1 radar plot); details: read-out: −p Log EC50 on human glucagon receptor (GCGR) (converted)
Source text: Here, the compounds 20, 21, 22, 28, 30, 31,32, 33, 34, 35 are shown in terms of their potencies in Gs activation, measured as CAMP accumulation, depicted in a radar plot. The numbers refer to −p Log EC50 values. […] The outer rings correspond to higher potencies, the inner rings correspond to lower potencies.

human SNAP-tagged GIPR = biological target: T4, human SNAP-tagged GIPR (Homo sapiens, UniProt P48546); test: Receptor internalization assay, HEK293A cells expressing human SNAP-tagged GIPR; details: for GIPR internalization (in words): compared to native GIP
T4 construct: host or cells: HEK293A
T4 sequence (P48546 22-466): T1 sequence (P48546 22-466)

human SNAP-tagged GLP-1R = biological target: T5, human SNAP-tagged GLP-1R (Homo sapiens, UniProt P43220); test: Receptor internalization assay, HEK293A cells expressing human SNAP-tagged GLP-1R; details: for Absolute hGLP-1R internalization (AUC): AUC of sigmoid curves up to 1 μM, 60 minutes at 37° C.; for Relative hGLP-1R internalization (%): relative to hGLP-1 = 100; for GLP-1R internalization (in words): compared to native GLP-1
T5 construct: expressed in transfected cells; host or cells: HEK293A

human SNP-tagged GLP-2R = biological target: T6, human SNP-tagged GLP-2R (Homo sapiens, UniProt O95838); test: Receptor internalization assay, HEK293A cells expressing human SNAP-tagged GLP-2R; details: for Absolute hGLP-2R internalization (AUC): AUC of sigmoid curves up to 1 μM, 60 minutes at 37° C.; for Relative hGLP-2R internalization (%): relative to native ligand = 100; for GLP-2R internalization (in words): compared to native GLP-2
T6 construct: expressed in transfected cells; host or cells: HEK293A
T6 sequence (O95838 1-553): T2 sequence (O95838 1-553)

[2] = COS-7, read-out: Efficacy GIPR (Emax)
[3] = COS-7, read-out: Efficacy GLP-2R (Emax)
[4] = COS-7, read-out: Efficacy GLP-1R (Emax)
[5] = COS-7, normalized to highest concentration of the endogenous ligand, read-out: Efficacy GIPR (Emax)
[6] = COS-7, normalized to highest concentration of the endogenous ligand, read-out: Efficacy GLP-2R (Emax)
[7] = COS-7, normalized to highest concentration of the endogenous ligand, read-out: Efficacy GLP-1R (Emax)
[8] = read-out: logEC50 GLP-1R (converted)
[9] = AUC of sigmoid curves up to 1 μM, 60 minutes at 37° C.

T3 sequence (P43220 24-463): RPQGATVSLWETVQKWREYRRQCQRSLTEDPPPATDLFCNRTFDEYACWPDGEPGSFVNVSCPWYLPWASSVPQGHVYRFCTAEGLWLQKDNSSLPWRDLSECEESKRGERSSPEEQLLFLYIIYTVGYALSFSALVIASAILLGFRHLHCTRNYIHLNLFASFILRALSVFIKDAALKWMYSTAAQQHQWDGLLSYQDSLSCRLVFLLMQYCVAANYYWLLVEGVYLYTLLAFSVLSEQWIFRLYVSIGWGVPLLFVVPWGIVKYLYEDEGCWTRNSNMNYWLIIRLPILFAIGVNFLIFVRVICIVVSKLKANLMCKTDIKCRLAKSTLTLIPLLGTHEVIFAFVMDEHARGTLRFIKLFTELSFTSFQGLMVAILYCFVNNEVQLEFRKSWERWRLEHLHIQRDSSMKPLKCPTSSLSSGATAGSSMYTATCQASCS
T5 sequence (P43220 24-463): as above
Chain of human glucagon receptor (GCGR) (P47871 26-477): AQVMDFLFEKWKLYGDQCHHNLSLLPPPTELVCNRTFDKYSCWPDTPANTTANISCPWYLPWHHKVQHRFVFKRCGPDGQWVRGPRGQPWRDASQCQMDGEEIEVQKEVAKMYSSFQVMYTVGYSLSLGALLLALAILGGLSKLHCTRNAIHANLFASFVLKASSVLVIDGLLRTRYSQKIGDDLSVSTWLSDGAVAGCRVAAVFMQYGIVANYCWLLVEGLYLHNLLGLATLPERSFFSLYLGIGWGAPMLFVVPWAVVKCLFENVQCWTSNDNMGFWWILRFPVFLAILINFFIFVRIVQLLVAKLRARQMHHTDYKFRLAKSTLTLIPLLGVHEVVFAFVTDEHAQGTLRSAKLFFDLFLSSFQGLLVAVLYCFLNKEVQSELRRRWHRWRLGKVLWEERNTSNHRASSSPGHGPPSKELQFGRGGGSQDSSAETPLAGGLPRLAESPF

| Compound | Emax (human GIPR; [2]) [%] | Emax (human GLP-2R; [3]) [%] | Emax (human GLP-1R; [4]) [%] | EC50 [1] [nM] | Absolute hGIPR internalization (AUC) (human SNAP-tagged GIPR) | Relative hGIPR internalization (%) (human SNAP-tagged GIPR) | Absolute hGLP-1R internalization (AUC) (human SNAP-tagged GLP-1R) | Relative hGLP-1R internalization (%) (human SNAP-tagged GLP-1R) | Absolute hGLP-2R internalization (AUC) (human SNP-tagged GLP-2R) | Relative hGLP-2R internalization (%) (human SNP-tagged GLP-2R) | Emax (human GIPR; [5]) [%] | EC50 (human GIPR) [nM] | Emax (human GLP-2R; [6]) [%] | Emax (human GLP-1R; [7]) [%] | EC50 (human GLP-1R; [8]) [nM] | Absolute hGIPR internalization (AUC) (human SNAP-tagged GIPR; [9]) | GIPR internalization (in words) (human SNAP-tagged GIPR) | Relative hGIPR internalization (%) (human SNAP-tagged GIPR; relative to hGIP 1-42 = 100) | GLP-1R internalization (in words) (human SNAP-tagged GLP-1R) | GLP-2R internalization (in words) (human SNP-tagged GLP-2R) | further results |
| --- | --- | --- | --- | --- | --- | --- | --- | --- | --- | --- | --- | --- | --- | --- | --- | --- | --- | --- | --- | --- | --- |
| CC[C@H](C)[C@H](NC(=O)[C@H](Cc1ccccc1)NC(=O)[C@H](CC(=O)O)NC(=O)[C@H](CCCNC(=N)N)NC(=O)[C@H](C)NC(=O)[C@H](C)NC(=O)[C@H](CC(C)C)NC(=O)[C@H](CC(N)=O)NC(=O)[C@H](CC(=O)O)NC(=O)[C@H](CC(C)C)NC(=O)[C@@H](NC(=O)[C@@H](NC(=O)[C@H](CO)NC(=O)[C@H](Cc1ccc(O)cc1)NC(=O)[C@H](CC(=O)O)NC(=O)[C@H](CO)NC(=O)[C@@H](NC(=O)[C@H](Cc1ccccc1)NC(=O)[C@@H](NC(=O)CNC(=O)[C@H](CC(=O)O)NC(=O)[C@H](C)NC(=O)[C@@H](N)Cc1c[nH]cn1)[C@@H](C)O)[C@@H](C)CC)[C@@H](C)O)[C@@H](C)CC)C(=O)N[C@@H](CC(N)=O)C(=O)N[C@@H](Cc1c[nH]c2ccccc12)C(=O)N[C@@H](CC(C)C)C(=O)N[C@H](C(=O)N[C@@H](CCC(N)=O)C(=O)N[C@H](C(=O)N[C@@H](CCCCN)C(=O)NCC(=O)N[C@@H](CCCCN)C(=O)N[C@@H](CCCCNC(=O)COCCOCCNC(=O)COCCOCCNC(=O)CC[C@H](NC(=O)CCCCCCCCCCCCCCCCC(=O)O)C(=O)O)C(=O)O)[C@@H](C)O)[C@@H](C)CC [Compound 33] | 88 | 90 | 99 | > 100 | 15.8 | 43% | 6.4 | 7.7 | 6.4 | 13.2 | – | – | – | – | – | – | – | – | – | – | – |
| CC[C@H](C)[C@H](NC(=O)[C@H](Cc1ccccc1)NC(=O)[C@H](CC(=O)O)NC(=O)[C@H](CCCNC(=N)N)NC(=O)[C@H](C)NC(=O)[C@H](C)NC(=O)[C@H](CC(C)C)NC(=O)[C@H](CC(N)=O)NC(=O)[C@H](CC(=O)O)NC(=O)[C@H](CC(C)C)NC(=O)C(C)(C)NC(=O)[C@@H](NC(=O)[C@H](CO)NC(=O)[C@H](Cc1ccc(O)cc1)NC(=O)[C@H](CC(=O)O)NC(=O)[C@H](CO)NC(=O)[C@@H](NC(=O)[C@H](Cc1ccccc1)NC(=O)[C@@H](NC(=O)CNC(=O)[C@H](CC(=O)O)NC(=O)[C@H](C)NC(=O)[C@@H](N)Cc1c[nH]cn1)[C@@H](C)O)[C@@H](C)CC)[C@@H](C)O)C(=O)N[C@@H](CC(N)=O)C(=O)N[C@@H](Cc1c[nH]c2ccccc12)C(=O)N[C@@H](CC(C)C)C(=O)N[C@H](C(=O)N[C@@H](CCC(N)=O)C(=O)N[C@H](C(=O)N[C@@H](CCCCN)C(=O)NCC(=O)N[C@@H](CCCCN)C(=O)N[C@@H](CCCCN)C(=O)N[C@@H](CCCCNC(=O)COCCOCCNC(=O)COCCOCCNC(=O)CC[C@H](NC(=O)CCCCCCCCCCCCCCCCC(=O)O)C(=O)O)C(=O)O)[C@@H](C)O)[C@@H](C)CC [Compound 35] | 99 | 93 | 92 | > 100 | 14.3 | 39% and 38% | 2.0 | 2.4 | 7.6 | 15.7 | – | – | – | – | – | – | – | – | – | – | – |
| HADGTFTSDYSIILDK([AEEA-AEEA-γGlu-C18 diacid])LAARDFINWLIQTKGKKNDWKHNITQ-OH [Compound 20] | – | – | – | > 100 | – | – | 91.8 | 109.14 | 39.4 | 81.0 | 112 | 0.126 | 100 | 112 | 0.0398 | 14.2 | reduced internalization compared to native GIP | 38 | comparable to native GLP-1 and GLP-2 | comparable to native GLP-1 and GLP-2 | EC50 (human GLP-2R; read-out: logEC50 GLP-2R (converted)): 0.316 nM |
| HADGTFTSDYSTILDK([AEEA-AEEA-γGlu-C18 diacid])LAARDFINWLIQTKGKKNDWKHNITQ-OH [Compound 21] | – | – | – | > 100 | – | – | 94.7 | 112.59 | 36.3 | 74.6 | 104 | 0.398 | 104 | 122 | – | 10.2 | reduced internalization compared to native GIP | 28 | comparable to native GLP-1 and GLP-2 | comparable to native GLP-1 and GLP-2 | EC50 (human GLP-2R; read-out: EC50 (nM) GLP-2R): 0.6 nM; EC50 (human GLP-1R; read-out: EC50 (nM) GLP-1R): 0.05 nM |
| HADGTFTSDYST[Aib]LDK([AEEA-AEEA-γGlu-C18 diacid])LAARDFINWLIQTKGKKNDWKHNITQ-OH [Compound 22] | – | – | – | > 100 | – | – | 78.81 | 93.70 | 38.0 | 78.2 | 93 | 1.12 | 93 | 116 | 0.0316 | 7.0 | reduced internalization compared to native GIP | 19 | comparable to native GLP-1 and GLP-2 | comparable to native GLP-1 and GLP-2 | EC50 (human GLP-2R; read-out: EC50 (nM) GLP-2R): 0.6 nM; EC50 (human GLP-1R; read-out: EC50 (nM) GLP-1R): 0.04 nM |
